The target in the assay is T1, ΔF508-CFTR (Homo sapiens, UniProt P13569, DEL508-508).
T1 construct: expressed in transfected cells
Kind of assay: Membrane potential optical (FRET/VIPR) assay, identification of potentiator compounds. Type of assay: cell-based. Particulars: Table 3, assay not given; for % Activity: relative efficacy. An outline of the steps: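 NIH3T3 mouse fibroblasts stably expressing ΔF508-CFTR, temperature-corrected 24 h at 27° C., read on VIPR by FRET between CC2-DMPE and DiSBAC2(3). Potentiators identified in a double-addition format, first adding chloride-free (gluconate) medium with or without compound.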

Molecules are shown by their SMILES. pEC50: −log10 of the molar value.

One may read the pEC50 as −log10 of the EC50, conventionally taken in molar units.

T1 sequence (P13569 with tags, fused parts or gaps DEL508-508): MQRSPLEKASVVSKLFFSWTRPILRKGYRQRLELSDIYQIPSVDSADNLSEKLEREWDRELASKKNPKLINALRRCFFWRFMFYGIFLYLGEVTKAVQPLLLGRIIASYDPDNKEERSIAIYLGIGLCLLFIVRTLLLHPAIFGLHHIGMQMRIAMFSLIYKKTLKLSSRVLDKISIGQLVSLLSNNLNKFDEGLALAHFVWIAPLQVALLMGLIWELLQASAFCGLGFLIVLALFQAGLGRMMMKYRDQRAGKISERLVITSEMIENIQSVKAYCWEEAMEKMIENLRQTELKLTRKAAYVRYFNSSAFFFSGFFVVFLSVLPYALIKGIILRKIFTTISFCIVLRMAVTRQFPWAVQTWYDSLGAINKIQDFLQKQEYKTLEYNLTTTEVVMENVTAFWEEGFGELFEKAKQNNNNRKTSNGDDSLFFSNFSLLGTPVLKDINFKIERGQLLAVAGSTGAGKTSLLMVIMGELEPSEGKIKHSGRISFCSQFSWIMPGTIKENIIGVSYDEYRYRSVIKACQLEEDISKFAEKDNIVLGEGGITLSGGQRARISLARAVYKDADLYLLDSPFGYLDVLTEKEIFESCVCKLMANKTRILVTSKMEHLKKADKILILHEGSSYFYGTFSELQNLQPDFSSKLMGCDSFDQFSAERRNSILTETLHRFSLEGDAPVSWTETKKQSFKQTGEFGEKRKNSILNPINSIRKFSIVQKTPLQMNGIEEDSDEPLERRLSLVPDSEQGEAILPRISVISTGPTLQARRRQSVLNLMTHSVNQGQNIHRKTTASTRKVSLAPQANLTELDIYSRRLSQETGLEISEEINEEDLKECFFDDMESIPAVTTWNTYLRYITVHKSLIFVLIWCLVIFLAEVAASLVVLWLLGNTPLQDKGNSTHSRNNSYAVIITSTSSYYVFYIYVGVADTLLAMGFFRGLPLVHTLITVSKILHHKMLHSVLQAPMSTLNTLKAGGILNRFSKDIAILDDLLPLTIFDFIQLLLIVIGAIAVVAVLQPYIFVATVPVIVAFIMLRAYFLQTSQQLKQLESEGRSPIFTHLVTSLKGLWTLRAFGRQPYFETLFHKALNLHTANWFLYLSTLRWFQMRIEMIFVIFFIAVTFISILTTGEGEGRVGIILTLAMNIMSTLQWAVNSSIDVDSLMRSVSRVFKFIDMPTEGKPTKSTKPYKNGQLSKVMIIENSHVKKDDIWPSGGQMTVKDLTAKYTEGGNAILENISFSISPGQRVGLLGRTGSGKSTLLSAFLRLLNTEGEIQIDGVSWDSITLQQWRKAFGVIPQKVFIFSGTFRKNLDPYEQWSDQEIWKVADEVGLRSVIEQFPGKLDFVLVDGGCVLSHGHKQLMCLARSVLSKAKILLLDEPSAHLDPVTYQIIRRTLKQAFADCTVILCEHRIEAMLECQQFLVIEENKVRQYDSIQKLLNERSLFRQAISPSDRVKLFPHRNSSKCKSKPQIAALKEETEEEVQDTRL

Consider `CC(C)(C)c1cc(Cl)c(NC(=O)c2c[nH]c3ccccc3c2=O)cc1O` [Compound 291, N-(2-chloro-5-hydroxy-4-tert-butyl-phenyl)-4-oxo-1H-quinoline-3-carboxamide], for which the “% Activity” value is reported as “++ (between 25% to 100%)”.

Turning to `O=C(Nc1cc(Cl)ccc1Oc1ccccc1)c1c[nH]c2ccccc2c1=O` [Compound 292, N-(5-chloro-2-phenoxy-phenyl)-4-oxo-1H-quinoline-3-carboxamide], the pEC50 is greater than 5.00 and the “% Activity” value is recorded as “++ (between 25% to 100%)”.

Take `O=C(Nc1ccccc1-n1cccc1)c1c[nH]c2ccccc2c1=O` [Compound 293, 4-oxo-N-[2-(1H-pyrrol-1-yl)phenyl]-1H-quinoline-3-carboxamide]: the pEC50 was 4.60 to 5.00 and the “% Activity” value is reported as “+++ (>100%)”.

For `O=C(Nc1ccc2[nH]ccc2c1)c1c[nH]c2ccccc2c1=O` [Compound 294, N-(1H-indol-5-yl)-4-oxo-1H-quinoline-3-carboxamide], the pEC50 is 4.60 to 5.00 and the “% Activity” value was “++ (between 25% to 100%)”.

Consider `O=C(Nc1ccccc1N1CCCC1)c1c[nH]c2ccccc2c1=O` [Compound 295, 4-oxo-N-(2-pyrrolidin-1-ylphenyl)-1H-quinoline-3-carboxamide], for which the negative-log EC50 (pEC50) was greater than 5.00 and the “% Activity” value is “++ (between 25% to 100%)”.

Regarding `COc1nc2ccccc2c(OC)c1C(=O)Nc1ccccc1C(C)(C)C` [Compound 296, 2,4-dimethoxy-N-(2-tert-butylphenyl)-quinoline-3-carboxamide], the pEC50 was 4.60 to 5.00 and the “% Activity” value was “++ (between 25% to 100%)”.

Take `Cc1ccc(C)n1-c1ccccc1NC(=O)c1c[nH]c2ccccc2c1=O` [Compound 297, N-[2-(2,5-dimethyl-1H-pyrrol-1-yl)phenyl]-4-oxo-1H-quinoline-3-carboxamide]: the negative logarithm of the EC50 (pEC50) is greater than 5.00 and the “% Activity” value is “++ (between 25% to 100%)”.

On to `CCOC(=O)Nc1cc(NC(=O)c2c[nH]c3ccccc3c2=O)ccc1CC` [Compound 298, [2-ethyl-5-[(4-oxo-1H-quinolin-3-yl)carbonylamino]phenyl]aminoformic acid ethyl ester], for which the “% Activity” value was “++ (between 25% to 100%)”.

As for `O=C(Nc1ccc2c(c1)NCCC2)c1c[nH]c2ccccc2c1=O` [Compound 299, 4-Oxo-N-(1,2,3,4-tetrahydroquinolin-7-yl)-1H-quinoline-3-carboxamide], the pEC50 was greater than 5.00 and the “% Activity” value is “++ (between 25% to 100%)”.

`CC1(C)CCNc2cc(NC(=O)c3c[nH]c4ccccc4c3=O)ccc21` [Compound 300, N-(4,4-Dimethyl-1,2,3,4-tetrahydroquinolin-7-yl)-4-oxo-1H-quinoline-3-carboxamide]: the pEC50 is greater than 5.00 and the “% Activity” value is “++ (between 25% to 100%)”.

Turning to `Cn1cnnc1-c1ccc(NC(=O)c2c[nH]c3ccccc3c2=O)cc1` [Compound 301, N-[4-(4-methyl-4H-1,2,4-triazol-3-yl)phenyl]-4-oxo-1H-quinoline-3-carboxamide], the pEC50 was 4.22 to 4.60 and the “% Activity” value is reported as “+ (<25%)”.

On to `O=C(Nc1ccccc1-c1ccc(CO)cc1)c1c[nH]c2ccccc2c1=O` [Compound 302, N-[2-[4-(hydroxymethyl)phenyl]phenyl]-4-oxo-1H-quinoline-3-carboxamide], for which the negative logarithm of the EC50 (pEC50) was 4.60 to 5.00 and the “% Activity” value was “++ (between 25% to 100%)”.

Consider `CC(=O)N1CCc2ccc(NC(=O)c3c[nH]c4ccccc4c3=O)cc2C1` [Compound 303, N-(2-acetyl-1,2,3,4-tetrahydroisoquinolin-7-yl)-4-oxo-1H-quinoline-3-carboxamide], for which the pEC50 was 4.60 to 5.00 and the “% Activity” value is recorded as “++ (between 25% to 100%)”.

Consider `CCOc1ccccc1-c1ccc(CNC(=O)OC(C)(C)C)cc1NC(=O)c1c[nH]c2ccccc2c1=O` [Compound 304, {2′-Ethoxy-2-[(4-oxo-1,4-dihydroquinoline-3-carbonyl)-amino]-biphenyl-4-ylmethyl}-carbamic acid tert-butyl ester], for which the pEC50 was greater than 5.00 and the “% Activity” value is “++ (between 25% to 100%)”.

Regarding `COc1ccc(-c2ccccc2NC(=O)c2c[nH]c3ccccc3c2=O)cc1` [Compound 305, N-[2-(4-methoxyphenyl)phenyl]-4-oxo-1H-quinoline-3-carboxamide], the pEC50 was greater than 5.00 and the “% Activity” value is recorded as “+++ (>100%)”.

In the case of `CCOc1cccc(-c2ccccc2NC(=O)c2c[nH]c3ccccc3c2=O)c1` [Compound 306, N-[2-(3-ethoxyphenyl)phenyl]-4-oxo-1H-quinoline-3-carboxamide], the pEC50 was greater than 5.00 and the “% Activity” value was “+++ (>100%)”.

With `O=C(Nc1ccccc1-c1cccc(Cl)c1)c1c[nH]c2ccccc2c1=O` [Compound 307, N-[2-(3-chlorophenyl)phenyl]-4-oxo-1H-quinoline-3-carboxamide], the negative logarithm of the EC50 (pEC50) was greater than 5.00 and the “% Activity” value was “++ (between 25% to 100%)”.

Regarding `N#CCc1ccccc1NC(=O)c1c[nH]c2ccccc2c1=O` [Compound 308, N-[2-(cyanomethyl)phenyl]-4-oxo-1H-quinoline-3-carboxamide], the pEC50 was 4.60 to 5.00 and the “% Activity” value is on record as “++ (between 25% to 100%)”.

As for `O=C(Nc1cc2ccccc2cn1)c1c[nH]c2ccccc2c1=O` [Compound 309, N-(3-isoquinolyl)-4-oxo-1H-quinoline-3-carboxamide], the negative-log EC50 (pEC50) was 4.22 to 4.60 and the “% Activity” value is recorded as “+ (<25%)”.

`CCC(C)c1ccc(NC(=O)c2c[nH]c3ccccc3c2=O)cc1` (centres unmarked) [Compound 310, 4-oxo-N-(4-sec-butylphenyl)-1H-quinoline-3-carboxamide]: the pEC50 was greater than 5.00 and the “% Activity” value was “++ (between 25% to 100%)”.

Turning to `Cc1ccc(-c2ccccc2NC(=O)c2c[nH]c3ccccc3c2=O)o1` [Compound 311, N-[2-(5-methyl-2-furyl)phenyl]-4-oxo-1H-quinoline-3-carboxamide], the negative-log EC50 (pEC50) was greater than 5.00 and the “% Activity” value is reported as “++ (between 25% to 100%)”.

As to `COc1ccc(-c2ccccc2NC(=O)c2c[nH]c3ccccc3c2=O)c(OC)c1` [Compound 312, N-[2-(2,4-dimethoxyphenyl)phenyl]-4-oxo-1H-quinoline-3-carboxamide], the negative-log EC50 (pEC50) is greater than 5.00 and the “% Activity” value is “++ (between 25% to 100%)”.

Consider `O=C(Nc1ccccc1-c1ccccc1F)c1c[nH]c2ccccc2c1=O` [Compound 313, N-[2-(2-fluorophenyl)phenyl]-4-oxo-1H-quinoline-3-carboxamide], for which the negative-log EC50 (pEC50) is greater than 5.00 and the “% Activity” value is “++ (between 25% to 100%)”.

With `CCc1cccc(C(C)C)c1NC(=O)c1c[nH]c2ccccc2c1=O` [Compound 314, N-(2-ethyl-6-isopropyl-phenyl)-4-oxo-1H-quinoline-3-carboxamide], the “% Activity” value was “++ (between 25% to 100%)”.

Turning to `Cc1cccc(C)c1NC(=O)c1c[nH]c2ccccc2c1=O` [Compound 315, N-(2,6-dimethylphenyl)-4-oxo-1H-quinoline-3-carboxamide], the pEC50 is greater than 5.00 and the “% Activity” value was “++ (between 25% to 100%)”.

Turning to `CC(=O)Nc1ccc(C(C)(C)C)c(NC(=O)c2c[nH]c3ccccc3c2=O)c1` [Compound 316, N-(5-acetylamino-2-tert-butyl-phenyl)-4-oxo-1H-quinoline-3-carboxamide], the negative-log EC50 (pEC50) is 4.60 to 5.00 and the “% Activity” value is recorded as “++ (between 25% to 100%)”.

As to `O=C(Nc1c(Cl)cccc1Cl)c1c[nH]c2ccccc2c1=O` [Compound 317, N-(2,6-dichlorophenyl)-4-oxo-1H-quinoline-3-carboxamide], the pEC50 is greater than 5.00 and the “% Activity” value is given as “++ (between 25% to 100%)”.

As to `O=C(Nc1cc(NS(=O)(=O)CCN2CCCCC2)cc(C(F)(F)F)c1)c1c[nH]c2ccccc2c1=O` [Compound 318, 4-Oxo-N-[3-[2-(1-piperidyl)ethylsulfonylamino]-5-(trifluoromethyl)phenyl]-1H-quinoline-3-carboxamide], the pEC50 is 4.60 to 5.00 and the “% Activity” value is “++ (between 25% to 100%)”.

Consider `CC(C)(C)c1cc(F)c(NC(=O)c2c[nH]c3ccc(F)cc3c2=O)cc1O` [Compound 319, 6-fluoro-N-(2-fluoro-5-hydroxy-4-tert-butyl-phenyl)-4-oxo-1H-quinoline-3-carboxamide], for which the pEC50 is greater than 5.00 and the “% Activity” value was “++ (between 25% to 100%)”.

Turning to `CC(C)(C)c1cc2ccc(NC(=O)c3c[nH]c4ccccc4c3=O)cc2[nH]1` [Compound 320, 4-oxo-N-(2-tert-butyl-1H-indol-6-yl)-1H-quinoline-3-carboxamide], the negative logarithm of the EC50 (pEC50) is greater than 5.00 and the “% Activity” value is given as “++ (between 25% to 100%)”.

Consider `O=C(Nc1ccccc1N1CCN(C(=O)c2ccccc2)CC1)c1c[nH]c2ccccc2c1=O` [Compound 321, N-[2-(4-benzoylpiperazin-1-yl)phenyl]-4-oxo-1H-quinoline-3-carboxamide], for which the pEC50 is greater than 5.00 and the “% Activity” value is listed as “++ (between 25% to 100%)”.

On to `CCc1cccc(C(C)CC)c1NC(=O)c1c[nH]c2ccccc2c1=O` (centres unmarked) [Compound 322, N-(2-ethyl-6-sec-butyl-phenyl)-4-oxo-1H-quinoline-3-carboxamide], for which the pEC50 is greater than 5.00 and the “% Activity” value is “++ (between 25% to 100%)”.

With `COC(=O)NCC(C)(C)c1ccc(NC(=O)c2c[nH]c3ccccc3c2=O)cc1` [Compound 323, [2-Methyl-2-[4-[(4-oxo-1H-quinolin-3-yl)carbonylamino]phenyl]-propyl]aminoformic acid methyl ester], the pEC50 is greater than 5.00 and the “% Activity” value was “++ (between 25% to 100%)”.

In the case of `CCCCc1ccc(NC(=O)c2c[nH]c3ccccc3c2=O)cc1` [Compound 324, N-(4-butylphenyl)-4-oxo-1H-quinoline-3-carboxamide], the pEC50 is greater than 5.00 and the “% Activity” value is “++ (between 25% to 100%)”.
